# Measured values taken from patent US20100021924A1, “Transgenic animal and methods for decreasing cardiac cell death via cardiac-specific sir2alpha overexpression” (priority 2005, published 2010).
# “Also recorded” adds a separate entry of the source.
# Columns and labels:
# Histones 3 and 4 = assay: Histone acetylation in treated cardiac myocytes (immunoblot); type: cell-based, rat
# [1] = test system: neonatal rat cardiac myocytes; assay: Cardiac myocyte morphology and death (shrinkage, detachment, cell size); type: cell-based
# Procedure: A 110 kD protein was detected predominantly in the nuclear fraction. To examine the function of Sir2α in cardiac myocytes, nicotinamide (NAM) and sirtinol, inhibitors of Sir2 (Bitterman, et al. (2002) J. Biol. Chem. 277:45099-45107; Grozinger, et al. (2001) J. Biol. Chem. 276:38837-38843) were employed. Myocytes were also treated with trichostatin A (TSA), an inhibitor of class I and II HDACs (Johnstone (2002) Nat. Rev. Drug Discov. 1:287-299).
# To examine whether cardiac myocyte apoptosis due to inhibition of Sir2α is mediated by p53, cardiac myocytes were transduced with adenovirus harboring temperature-sensitive dominant-negative p53 and cultured at 39° C. […] The temperature-sensitive dominant-negative p53 construct works as a dominant-negative only at high temperatures (Regula and Kirshenbaum (2001) J. Mol. Cell. Cardiol. 33:1435-1445). Consistent with this, the cell death inhibitory effect of dominant-negative p53 against NAM treatment was not observed at 32° C.
# (§1) Cardiac-specific overexpression of Sir2α was subsequently examined. […] After 7 days, most myocytes were dead in a low-density culture condition. […] It has been shown that pyruvate increases, while lactate decreases, the cellular NAD^+/NADH ratio, thereby positively or negatively regulating the activity of endogenous Sir2α (Fulco, et al. (2003) Mol. Cell 12:51-62).
# (§2) Primary Culture of Neonatal Rat Ventricular Myocytes. Primary cultures of cardiac ventricular myocytes were prepared from 1-day-old Crl: (WI) BR-Wistar rats according to standard methods (Tomita, et al. (2003) Circ. Res. 93:12-22). Myocytes were cultured under serum-free conditions for 48 hours before experiments. Cell size and total protein content were obtained (Tomita, et al. (2003) supra).
# cardiac myocytes [2] = assay: Cell Death Detection ELISA (cytoplasmic mono- and oligo-nucleosomes); type: cell-based, rat; details: for mono- and oligo-nucleosomes in the cytoplasm (nuclear fragmentation): marker of apoptosis
# Procedure: Myocytes were transduced with an adenoviral vector encoding LacZ (Ad-LacZ) or Sir2α (Ad-Sir2α) with or without serum for 48 hours followed by Cell Death ELISA (FIG. 1A). Alternatively, myocytes were transduced Ad-LacZ or Ad-Sir2α with or without H2O2 (100 μM) for 48 hours followed by Cell Death ELISA (FIG. 1B). […] Mean OD value of control was designated as 1. Each column represents mean from 3 different culture preparations.
# (§3) Subsequently, it was determined whether cardiac myocyte death by Sir2α inhibition was due to apoptosis. […] Similar results were obtained using TUNEL staining. To examine whether activation of caspase-3 was involved in myocyte death induced by NAM and TSA, the effect of DEVD-CHO, a cell permeable inhibitor of caspase-3, upon myocyte death was examined.
# as §1, §2
# Assays for Apoptosis. Histone-associated DNA fragments were quantitated by the Cell Death Detection ELISA (ROCHE; Yamamoto, et al. (2003) J. Clin. Invest. 111:1463-1474).
# cardiac myocytes [3] = assay: TUNEL staining of cultured cardiac myocytes; type: cell-based, rat; details: for TUNEL positive myocytes: compound alone
# Procedure: Subsequently, it was determined whether cardiac myocyte death by Sir2α inhibition was due to apoptosis. […] To examine whether activation of caspase-3 was involved in myocyte death induced by NAM and TSA, the effect of DEVD-CHO, a cell permeable inhibitor of caspase-3, upon myocyte death was examined.
# Primary Culture of Neonatal Rat Ventricular Myocytes. […] Myocytes were cultured under serum-free conditions for 48 hours before experiments.
# caspase-3 = assay: Caspase-3 cleavage in cardiac myocytes; type: cell-based, rat; details: treated cardiac myocytes
# Procedure: as §3
# To further confirm that inhibition of endogenous Sir2α stimulates cardiac myocyte apoptosis, the effects of a dominant-negative Sir2α were examined. […] The level of cleaved caspase-3 was higher in dominant-negative Sir2α-transduced myocytes than in LacZ-transduced cells.
# Immunoblot Analysis. Nuclear fractions were prepared as described (Tomita, et al. (2003) supra). Whole-cell lysates were obtained using Lysis Buffer A, containing 150 mmol/L NaCl, 50 mmol/L Tris, pH 7.5, 0.1 mmol/L Na3VO4, 1 mmol/L NaF, 0.5 mmol 4-(2-aminoethyl)benzenesulfonyl fluoride hydrochloride, 1% NONIDET P-40, 0.1% sodium dodecyl sulfate, 0.5% deoxycholic acid, 0.5 μg/mL leupeptin, and 0.5 μg/mL aprotinin. For immunoblotting, the antimurine Sir2α antibody (1:10 000) was used.
# p53 [4] = assay: p53-Luc reporter gene assay; type: cell-based, rat; details: treated myocytes
# Procedure: Transfection and Luciferase Assays. One million cells were transfected with 4 μg of plasmid. The transcriptional activity of p53 was evaluated using p53-Luc (2 pg) containing 15 copies of specific p53 DNA-binding sequence ([sequence]). A plasmid carrying the β-galactosidase gene (SV40-β-gal; 1 μg) was cotransfected. One microgram of expression plasmids pcDNA3.1, pcDNA3.1-Sir2α, or pcDNA 3.1-DN-Sir2α was employed.
# p53 [5] = assay: Immunoblot of nuclear fractions with anti-acetylated p53 antibodies; type: cell-based, rat; details: for Acetylation of p53 at K320 / Acetylation of p53 at K373/382: nuclear fractions of treated myocytes; for total amount of p53: treated myocytes
# Excerpt: To examine whether the status of acetylation in p53 is affected by NAM or TSA in cardiac myocytes, nuclear fractions were subjected to immunoblot analysis with anti-acetylated p53 antibodies.
# Anti-Sir2α antibody, anti-acetyl-p53 (Lys 320 and Lys 373/382) antibodies and anti-acetyl histone H3 and H4 antibodies were purchased from Upstate. Sirtinol and DEVD-CHO were from CALBIOCHEM, and Trichostatin A (TSA) was from SIGMA.
# mouse hearts = type: in vivo, mice; set-up: LV contraction (EF, % FS): dose or concentration left out as unconfirmed
# Procedure: Tg-Sirt2α (n=6) and NTg (n=4) mice from line 40 were treated with ip injection of 10 mg/kg of paraquat (PQ) for 2 weeks. LV ejection fraction (EF, FIG. 8A) and % fractional shortening (% FS, FIG. 8B) of Tg-Sirt2α and NTg mice after PQ treatment is shown. […] Immunoblot analyses of catalase were conducted, using cardiac myocytes transduced with adenovirus vectors harboring constitutively actively FOXO1a (F-CA), dominant negative FOXO1a (F-DN), or Sirt2α. n=3-4. Values are presented as means±SE.
# To this end, mice were treated for 14 days with paraquat, an inducer of oxidative stress. […] The paraquat-induced increases in oxidative stress were abolished in Tg-Sirt1 line 40 (FIG. 8D). […] Paraquat-induced increases in expression of catalase, an antioxidant, were greater in Tg-Sirt1 than in NTg hearts (FIG. 8E).
# myocytes = details: treatment with resveratrol; Pillai et al. 2005; cited from earlier work
compound,measurement,setting,value
"NC(=O)c1cccnc1 [NAM, nicotinamide]",acetylation of Histones 3 and 4,Histones 3 and 4,increased acetylation of Histones 3 and 4
same,"cell shrinkage and detachment, consistent with apoptosis",[1]; treatment for 48 hours,dose-dependent increases in cell shrinkage and detachment
same,mono- and oligo-nucleosomes in the cytoplasm (nuclear fragmentation),cardiac myocytes [2],significantly increased
same,TUNEL positive myocytes,cardiac myocytes [3],increases in TUNEL positive myocytes
same,cleavage of caspase-3,caspase-3,induced cleavage of caspase-3
same,activity of p53-Luc,p53 [4],dose-dependently increased
same,Acetylation of p53 at K320,p53 [5],2.8 fold
same,Acetylation of p53 at K373/382,p53 [5],1.8 fold
same,total amount of p53,p53 [5],Neither NAM nor TSA significantly changed
CC(NC(=O)c1ccccc1/N=C/c1c(O)ccc2ccccc12)c1ccccc1 (stereo not drawn) [sirtinol],mono- and oligo-nucleosomes in the cytoplasm (nuclear fragmentation),cardiac myocytes [2],significantly increased
same,cleavage of caspase-3,caspase-3,induced cleavage of caspase-3
"CC(/C=C/C(=O)NO)=C\[C@@H](C)C(=O)c1ccc(N(C)C)cc1 [TSA, trichostatin A]",acetylation of Histones 3 and 4,Histones 3 and 4,increased acetylation of Histones 3 and 4
same,myocyte death,[1]; at high doses,caused death in some myocytes at high doses
same,cell size,[1]; treated cardiac myocytes,modestly increased cell size
same,mono- and oligo-nucleosomes in the cytoplasm (nuclear fragmentation),cardiac myocytes [2],significantly increased nuclear fragmentation; also recorded: not as potent as NAM
same,TUNEL positive myocytes,cardiac myocytes [3],modest increase in TUNEL-positive myocytes
same,cleavage of caspase-3,caspase-3,did not
same,activity of p53-Luc,p53 [4],failed to activate
same,Acetylation of p53 at K320,p53 [5],not
same,Acetylation of p53 at K373/382,p53 [5],not
same,total amount of p53,p53 [5],Neither NAM nor TSA significantly changed
DEVD-CHO,TUNEL positive myocytes caused by NAM,cardiac myocytes [3]; effect of caspase-3 inhibitor on NAM-induced death,prevented increases in TUNEL positive myocytes
same,TUNEL-positive myocytes due to TSA,cardiac myocytes [3]; effect of caspase-3 inhibitor on TSA-induced death,did not affect
"C[n+]1ccc(-c2cc[n+](C)cc2)cc1 [Paraquat, paraquat]","LV contraction (EF, % FS)",mouse hearts,significantly reduced LV contraction
same,"oxidative stress (8-OHdG staining, MDA content)","mouse hearts; NTg mouse hearts, ip 10 mg/kg, 14 days",significantly increased the extent of oxidative stress
Oc1ccc(C=Cc2cc(O)cc(O)c2)cc1 [resveratrol],myocyte cell death in vitro,myocytes,prevents myocyte cell death
CC(O)C(=O)O (stereo not drawn) [lactate],cytoplasmic accumulation of mono- and oligo-nucleosomes induced by serum starvation,"cardiac myocytes [2]; 10 mM, 48 hours (FIG. 1C)",stimulated it
